Where two headings read alike, the source gives them in different places.
How the values were obtained:
[1] = tested on: Kochia scoparia (kochia, KCHSC); test: Greenhouse postemergence trial KCHSC; format: in vivo
Procedure: (§1) Seeds of the desired test plant species were planted in a 90:10% v/v (volume/volume) mixture of PRO-MIX® BX (Premier Tech Horticulture, Quakertown, PA, USA) and PROFILE® GREENS GRADE™ (Profile Products LLC, Buffalo Grove, IL, USA) planting mixture, which typically has a pH of 5.2 to 6.2 and an organic matter content of at least 50 percent, in plastic pots with a surface area of 103.2 square centimeters (cm^2). […] The plants were grown for 7-36 days (d) in a greenhouse with an approximate 14-hour (h) photo-period which was maintained at about 23° C. during the day and 22° C. during the night. Nutrients and water were added on a regular basis and supplemental lighting was provided with overhead metal halide 1000-Watt lamps as necessary. The plants were employed for testing when they reached the second or third true leaf stage.
(§2) Emulsifiable concentrates of each of each pyridine carboxylate herbicide (Compound A or Compound B) were prepared at 100 grams acid equivalent per liter (g ae/L). The emulsifiable concentrates also included a safener, cloquintocet-mexyl, at 120 grams active ingredient per liter (g ai/L), unless otherwise noted below. An aliquot of each emulsifiable concentrate was placed in a 25 mL glass vial and diluted with an aqueous mixture of 1.25% (v/v) ACTIROB® B esterified rapeseed oil (Bayer Crop Science, Research Triangle Park, NC, USA) or MSO® Concentrate with LECI-TECH® methylated soybean oil (Loveland Products, Loveland, CO, USA) to obtain concentrated stock solutions at the highest application rate for each herbicide, based upon a 12 milliliter (mL) application volume at a rate of 187 liters per hectare (L/ha). The concentrated stock solutions were further diluted with an aqueous mixture of 1.25% v/v ACTIROB® B or MSO® Concentrate with LECI-TECH® to obtain stock solutions at reduced application rates for each herbicide. Spray solutions of the herbicide combinations (Compound A or Compound B plus synthetic auxin herbicide or auxin transport inhibitor) were prepared by adding weighed amounts or aliquots of the synthetic auxin herbicide or auxin transport inhibitor to the stock solutions of Compound A or Compound B to form 12-mL spray solutions in two-way combinations.
(§3) The spray solutions were applied to the plant material with an overhead Mandel track sprayer equipped with 8002E nozzles calibrated to deliver 187 L/ha over an application area of 0.503 square meters (m^2) at a spray height of 18 inches (43 centimeters (cm)) above the average plant canopy. Control plants were sprayed in the same manner with the solvent blank. All pyridine carboxylate herbicide (component a) application rates are given as “g ae/ha” and all synthetic auxin herbicide or auxin transport inhibitor (component b) application rates are given as “g ai/ha.”
(§4) The treated plants and control plants were placed in a greenhouse as described above and watered by sub-irrigation to prevent wash-off of the test compounds. After 20-22 d, the condition of the test plants as compared with that of the control plants was determined visually and scored on a scale of 0 to 100 percent where 0 corresponds to no injury and 100 corresponds to complete kill.

[2] = tested on: Polygonum convolvulus (wild buckwheat, POLCO); test: Greenhouse postemergence trial POLCO; format: in vivo
[3] = tested on: Cyanus segetum (cornflower, CENCY); test: Greenhouse postemergence trial CENCY; format: in vivo
[4] = tested on: Viola arvensis (field violet, VIOAR); test: Greenhouse postemergence trial VIOAR; format: in vivo
Procedure: as §1, §2, §3, §4

[5] = tested on: Cirsium arvense (Canadian thistle, CIRAR); test: Greenhouse postemergence trial CIRAR; format: in vivo
[6] = tested on: Triticum aestivum (winter wheat, TRZAW); test: Greenhouse postemergence crop phytotoxicity TRZAW; format: in vivo; settings: TRZAW
Procedure: as §1, §2, §3, §4

[7] = tested on: Triticum aestivum (spring wheat, TRZAS); format: in vivo; settings: for % visual injury Obs / % visual injury (Obs): TRZAS
[8] = tested on: Veronica hederifolia (ivyleaf speedwell, VERHE); test: Greenhouse postemergence trial VERHE; format: in vivo
Procedure: as §1, §2, §3, §4

[9] = tested on: Lamium purpureum (purple deadnettle, LAMPU); test: Greenhouse postemergence trial LAMPU
Procedure: (§5) The plants were grown for 7-36 days (d) in a greenhouse with an approximate 14-hour (h) photo-period which was maintained at about 23° C. during the day and 22° C. during the night. Nutrients and water were added on a regular basis and supplemental lighting was provided with overhead metal halide 1000-Watt lamps as necessary. The plants were employed for testing when they reached the second or third true leaf stage.
(§6) The emulsifiable concentrates also included a safener, cloquintocet-mexyl, at 120 grams active ingredient per liter (g ai/L), unless otherwise noted below.
(§7) Control plants were sprayed in the same manner with the solvent blank. All pyridine carboxylate herbicide (component a) application rates are given as “g ae/ha” and all synthetic auxin herbicide or auxin transport inhibitor (component b) application rates are given as “g ai/ha.”
as §4

[10] = tested on: Viola tricolor (wild pansy, VIOTR); test: Greenhouse postemergence trial VIOTR;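 also: greenhouse plants sprayed at second to third true leaf stage, injury rated visually after 20-22 d against solvent-blank sprayed controls, 0 meaning no injury and 100 complete kill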
Procedure: as §1, §2, §3, §4

[11] = tested on: Capsella bursa-pastoris (shepherd's purse, CAPBP); test: Greenhouse postemergence trial CAPBP; format: in vivo
Procedure: as §1, §2, §3, §4

[12] = tested on: Veronica persica (bird's-eye speedwell, VERPE); test: Greenhouse postemergence trial VERPE; format: in vivo
Procedure: as §1, §2, §3, §4

[13] = tested on: Hordeum vulgare (winter barley, HORVW); test: Greenhouse postemergence crop phytotoxicity HORVW; format: in vivo; settings: HORVW
[14] = tested on: Hordeum vulgare (spring barley, HORVS); format: in vivo; settings: for % visual injury Obs / % visual injury (Obs): HORVS
[15] = tested on: Matricaria inodora (false chamomile, MATIN); test: Greenhouse postemergence trial MATIN; format: in vivo
Procedure: as §1, §2, §3, §4

[16] = tested on: Matricaria discoidea (pineapple weed, MATMT); test: Greenhouse postemergence trial MATMT; format: in vivo
[17] = tested on: Papaver rhoeas (corn poppy, PAPRH); test: Greenhouse postemergence trial PAPRH; format: in vivo
Procedure: as §1, §2, §3, §4

[18] = tested on: Brassica napus (winter rape, BRSNW); test: Greenhouse postemergence trial BRSNW; format: in vivo
Procedure: as §1, §2, §3, §4

[19] = tested on: Papaver rhoeas (corn poppy), herbicide-resistant (PAPRH-R); test: Greenhouse postemergence trial PAPRH-R; format: in vivo
[20] = tested on: Anthemis arvensis (field chamomile, ANTAR); test: Greenhouse postemergence trial ANTAR; format: in vivo
[21] = tested on: Salsola kali (Russian thistle, SASKR); test: Greenhouse postemergence trial SASKR; format: in vivo;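 also: greenhouse plants sprayed at second or third true leaf stage, injury rated by eye after 20-22 d against solvent-blank controls, 0 meaning no injury, 100 complete kill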
Procedure: as §5, §6, §7, §4

[22] = tested on: Stellaria media (chickweed, STEME); test: Greenhouse postemergence trial STEME; format: in vivo
[23] = tested on: Matricaria chamomilla (wild chamomile, MATCH); test: Greenhouse postemergence trial MATCH; format: in vivo;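 also: greenhouse plants sprayed at second to third true leaf stage, injury rated by eye 20-22 d later versus solvent-blank controls on 0–100 scale, 0 no injury, 100 complete kill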
[24] = tested on: Brassica napus (spring rape, BRSNN); test: Greenhouse postemergence trial BRSNN; format: in vivo; settings: for % visual injury (Obs): BRSNN
[25] = tested on: Sinapis arvensis (wild mustard, SINAR); test: Greenhouse postemergence trial SINAR; format: in vivo
Procedure: as §5, §6, §7, §4

[26] = tested on: Amaranthus retroflexus (pigweed, AMARE); test: Greenhouse postemergence trial AMARE; format: in vivo;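 also: Greenhouse-grown plants sprayed at second to third true leaf stage, injury rated by eye after 20-22 d versus solvent-blank sprayed controls, 0 = no injury, 100 = complete kill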
Procedure: as §5, §6, §7, §4

[27] = tested on: Chenopodium album L. (common lambsquarters, CHEAL); test: Greenhouse postemergence trial CHEAL; format: in vivo;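 also: greenhouse plants sprayed at second to third true leaf stage, injury rated by eye after 20-22 d versus solvent-blank sprayed controls, 0 = no injury, 100 = complete kill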
[28] = Lamium purpureum, post-emergence, read-out: % visual injury Obs
[29] = Viola tricolor, post-emergence, read-out: % visual injury Obs
[30] = Papaver rhoeas, post-emergence, read-out: % visual injury Obs

Nc1c(Cl)c(Cl)nc(C(=O)O)c1Cl [Picloram]
pest or weed control at 20 g/ha ([1]; Bassia scoparia, post-emergence, KCHSC, Picloram 20 g/ha, read-out: % visual injury Obs): 10% | % visual injury (Obs) ([1]; KCHSC, alone 10 g/ha): 10% | pest or weed control at 20 g/ha ([2]; Fallopia convolvulus, post-emergence, POLCO, Picloram 20 g/ha, read-out: % visual injury Obs): 40% | pest or weed control at 20 g/ha ([3]; Centaurea cyanus, post-emergence, CENCY, Picloram 20 g/ha, read-out: % visual injury Obs): 60% | pest or weed control at 20 g/ha ([4]; Viola arvensis, post-emergence, VIOAR, Picloram 20 g/ha, read-out: % visual injury Obs): 10% | pest or weed control at 20 g/ha ([5]; Cirsium arvense, post-emergence, CIRAR, Picloram 20 g/ha, read-out: % visual injury Obs): 60% | % visual injury Obs ([6]; Picloram 20 g/ha): 0% | % visual injury Obs ([7]; Picloram 20 g/ha): 0% | % visual injury (Obs) ([7]; alone 10 g/ha): 0% | pest or weed control at 20 g/ha ([8]; Veronica hederifolia, post-emergence, VERHE, Picloram 20 g/ha, read-out: % visual injury Obs): 10% | % visual injury (Obs) ([9]; LAMPU, alone 10 g/ha): 10% | pest or weed control at 20 g/ha [9, 28]: 5% | % visual injury (Obs) ([10]; VIOTR, alone, 10 g/ha): 10% | pest or weed control at 20 g/ha [10, 29]: 10% | % visual injury (Obs) ([11]; CAPBP, alone 10 g/ha): 10% | pest or weed control at 20 g/ha ([11]; Capsella bursa-pastoris, post-emergence, CAPBP, Picloram 20 g/ha, read-out: % visual injury Obs): 0% | pest or weed control at 20 g/ha ([12]; Veronica persica, post-emergence, VERPE, Picloram 20 g/ha, read-out: % visual injury Obs): 10% | % visual injury Obs ([13]; Picloram 20 g/ha): 0% | % visual injury Obs ([14]; Picloram 20 g/ha): 0% | % visual injury (Obs) ([14]; alone 10 g/ha): 0% | % visual injury (Obs) ([15]; MATIN, alone 10 g/ha): 10% | pest or weed control at 20 g/ha ([15]; Tripleurospermum inodorum, post-emergence, MATIN, Picloram 20 g/ha, read-out: % visual injury Obs): 30% | pest or weed control at 20 g/ha ([16]; Matricaria discoidea, post-emergence, MATMT, Picloram 20 g/ha, read-out: % visual injury Obs): 10% | pest or weed control at 20 g/ha ([17]; Papaver rhoeas, post-emergence, PAPRH, Picloram 20 g/ha, read-out: % visual injury Obs): 20% | plant injury at 20 g/ha ([18]; Brassica napus, post-emergence, BRSNW, Picloram 20 g/ha, read-out: % visual injury Obs): 10% | pest or weed control at 20 g/ha ([19]; Papaver rhoeas, post-emergence, PAPRH-R, Picloram 20 g/ha, read-out: % visual injury Obs): 30% | pest or weed control at 20 g/ha ([20]; Anthemis arvensis, post-emergence, ANTAR, Picloram 20 g/ha, read-out: % visual injury Obs): 30% | pest or weed control at 20 g/ha ([21]; Salsola kali, post-emergence, SASKR, Picloram 20 g/ha, read-out: % visual injury Obs): 30% | pest or weed control at 20 g/ha ([22]; Stellaria media, post-emergence, STEME, Picloram 20 g/ha, read-out: % visual injury Obs): 10% | pest or weed control at 20 g/ha ([23]; Matricaria chamomilla, post-emergence, MATCH, Picloram 20 g/ha, read-out: % visual injury Obs): 40% | % visual injury (Obs) ([24]; alone 10 g/ha): 8% | pest or weed control at 20 g/ha ([25]; Mutarda arvensis, post-emergence, SINAR, Picloram 20 g/ha, read-out: % visual injury Obs): 30%

O=C(O)CCCOc1ccc(Cl)cc1Cl [2,4-DB]
% visual injury (Obs) ([26]; AMARE, alone 280 g/ha): 60% | pest or weed control ([1]; Bassia scoparia, post-emergence, KCHSC, alone, read-out: % visual injury Obs): 30% | % visual injury (Obs) ([1]; KCHSC, alone 280 g/ha): 3% | pest or weed control at 560 g/ha ([2]; Fallopia convolvulus, post-emergence, read-out: % visual injury Obs): 30% | % visual injury (Obs) ([2]; POLCO, alone 280 g/ha): 13% | pest or weed control at 560 g/ha ([3]; Centaurea cyanus, post-emergence, read-out: % visual injury Obs): 30% | pest or weed control at 560 g/ha ([4]; Viola arvensis, post-emergence, read-out: % visual injury Obs): 30% | % visual injury (Obs) ([27]; CHEAL, alone 280 g/ha): 43% | % visual injury (Obs) ([5]; CIRAR, alone 280 g/ha): 15% | pest or weed control ([5]; Cirsium arvense, post-emergence, CIRAR, alone, read-out: % visual injury Obs): 30% | % visual injury Obs ([6]; alone, 560 g/ha): 0% | % visual injury (Obs) ([7]; alone 280 g/ha): 0% | % visual injury Obs ([7]; alone, 560 g/ha): 0% | pest or weed control at 560 g/ha ([8]; Veronica hederifolia, post-emergence, read-out: % visual injury Obs): 60% | pest or weed control at 560 g/ha [9, 28]: 10% | pest or weed control at 560 g/ha [10, 29]: 60% | pest or weed control at 560 g/ha ([11]; Capsella bursa-pastoris, post-emergence, read-out: % visual injury Obs): 30% | pest or weed control at 560 g/ha ([12]; Veronica persica, post-emergence, read-out: % visual injury Obs): 60% | % visual injury Obs ([13]; alone, 560 g/ha): 0% | % visual injury (Obs) ([14]; alone 280 g/ha): 0% | % visual injury Obs ([14]; alone, 560 g/ha): 0% | pest or weed control at 560 g/ha ([15]; Tripleurospermum inodorum, post-emergence, read-out: % visual injury Obs): 10% | pest or weed control at 560 g/ha ([16]; Matricaria discoidea, post-emergence, read-out: % visual injury Obs): 5% | pest or weed control at 560 g/ha [17, 30]: 100% | plant injury at 560 g/ha ([18]; Brassica napus, post-emergence, read-out: % visual injury Obs): 85% | pest or weed control at 560 g/ha [19, 30]: 30% | pest or weed control at 560 g/ha ([20]; Anthemis arvensis, post-emergence, read-out: % visual injury Obs): 10% | pest or weed control ([21]; Salsola kali, post-emergence, SASKR, alone, read-out: % visual injury Obs): 50% | pest or weed control at 560 g/ha ([22]; Stellaria media, post-emergence, read-out: % visual injury Obs): 10% | % visual injury (Obs) ([23]; MATCH, alone 280 g/ha): 5% | pest or weed control ([23]; Matricaria chamomilla, post-emergence, MATCH, alone, read-out: % visual injury Obs): 10% | % visual injury (Obs) ([24]; alone 280 g/ha): 70% | pest or weed control ([25]; Mutarda arvensis, post-emergence, SINAR, alone, read-out: % visual injury Obs): 50% | % visual injury (Obs) ([25]; SINAR, alone 280 g/ha): 30%

COC(=O)C1(O)c2ccccc2-c2ccc(Cl)cc21 (stereo not drawn) [Chlorflurenol-methyl]
AMARE Obs (% visual injury) ([26]; chlorflurenol-methyl 140 g/ha): 0% | KCHSC Obs (% visual injury) ([1]; chlorflurenol-methyl 140 g/ha): 0% | CHEAL Obs (% visual injury) ([27]; chlorflurenol-methyl 140 g/ha): 0% | CIRAR Obs (% visual injury) ([5]; chlorflurenol-methyl 140 g/ha): 0% | TRZAS Obs (% visual injury) ([7]; chlorflurenol-methyl 140 g/ha): 0% | HORVS Obs (% visual injury) ([14]; chlorflurenol-methyl 140 g/ha): 0% | SASKR Obs (% visual injury) ([21]; chlorflurenol-methyl 140 g/ha): 0% | MATCH Obs (% visual injury) ([23]; chlorflurenol-methyl 140 g/ha): 0% | BRSNN Obs (% visual injury) ([24]; chlorflurenol-methyl 140 g/ha): 23% | SINAR Obs (% visual injury) ([25]; chlorflurenol-methyl 140 g/ha): 18%

Nc1nc(C2CC2)nc(C(=O)O)c1Cl [Aminocyclopyrachlor]
% visual injury (Obs) ([1]; KCHSC, alone 25 g/ha): 78% | % visual injury Obs ([1]; KCHSC, alone, 50 g/ha): 100% | % visual injury Obs ([2]; POLCO, alone, 50 g/ha): 70% | % visual injury Obs ([3]; CENCY, alone, 50 g/ha): 100% | % visual injury Obs ([4]; VIOAR, alone, 50 g/ha): 25% | % visual injury Obs ([5]; CIRAR, alone, 50 g/ha): 85% | % visual injury Obs ([6]; alone, 50 g/ha): 0% | % visual injury (Obs) ([7]; alone 25 g/ha): 43% | % visual injury Obs ([7]; alone, 50 g/ha): 0% | % visual injury Obs ([8]; VERHE, alone, 50 g/ha): 60% | % visual injury Obs ([9]; LAMPU, alone, 50 g/ha): 65% | % visual injury (Obs) ([10]; VIOTR, alone 25 g/ha): 45% | % visual injury Obs ([10]; VIOTR, alone, 50 g/ha): 30% | % visual injury Obs ([11]; CAPBP, alone, 50 g/ha): 70% | % visual injury Obs ([12]; VERPE, alone, 50 g/ha): 65% | % visual injury Obs ([13]; alone, 50 g/ha): 0% | % visual injury (Obs) ([14]; alone 25 g/ha): 20% | % visual injury Obs ([14]; alone, 50 g/ha): 0% | % visual injury Obs ([15]; MATIN, alone, 50 g/ha): 85% | % visual injury Obs ([16]; MATMT, alone, 50 g/ha): 50% | % visual injury Obs ([17]; PAPRH, alone, 50 g/ha): 75% | % visual injury Obs ([18]; BRSNW, alone, 50 g/ha): 50% | % visual injury Obs ([19]; PAPRH-R, alone, 50 g/ha): 60% | % visual injury Obs ([20]; ANTAR, alone, 50 g/ha): 100% | % visual injury Obs ([21]; SASKR, alone, 50 g/ha): 75% | % visual injury Obs ([22]; STEME, alone, 50 g/ha): 30% | % visual injury Obs ([23]; MATCH, alone, 50 g/ha): 60% | % visual injury (Obs) ([24]; alone 25 g/ha): 30% | % visual injury Obs ([25]; SINAR, alone, 50 g/ha): 50%
